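Cultured in 96-well plates, cells were exposed to test compound for 48 hours across five concentrations. TGI is the concentration that stops growth completely.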
Assays:
Experiment in all cases: NCI-60 cell line screen, 48 h
SK-MEL-28 melanoma = test system: SK-MEL-28 melanoma
HOP-62 NSCLC = test system: HOP-62 NSCLC
KM12 colon = test system: KM12 colon
BT-549 breast = test system: BT-549 breast
LOX IMVI melanoma = test system: LOX IMVI melanoma
CCRF-CEM leukemia = test system: CCRF-CEM leukemia
SN12C renal = test system: SN12C renal
M14 melanoma = test system: M14 melanoma
DU-145 prostate = test system: DU-145 prostate
T-47D breast = test system: T-47D breast
HT29 colon = test system: HT29 colon
SNB-19 CNS = test system: SNB-19 CNS
MALME-3M melanoma = test system: MALME-3M melanoma
UACC-62 melanoma = test system: UACC-62 melanoma
HCT-15 colon = test system: HCT-15 colon
SF-295 CNS = test system: SF-295 CNS
OVCAR-3 ovarian = test system: OVCAR-3 ovarian
MDA-MB-231 breast = test system: MDA-MB-231 breast
SK-MEL-5 melanoma = test system: SK-MEL-5 melanoma
SNB-75 CNS = test system: SNB-75 CNS
HL-60(TB) leukemia = test system: HL-60(TB) leukemia
UO-31 renal = test system: UO-31 renal
SF-539 CNS = test system: SF-539 CNS
SK-MEL-2 melanoma = test system: SK-MEL-2 melanoma
TK-10 renal = test system: TK-10 renal
SR leukemia = test system: SR leukemia
OVCAR-4 ovarian = test system: OVCAR-4 ovarian
RXF 393 renal = test system: RXF 393 renal
EKVX NSCLC = test system: EKVX NSCLC
SF-268 CNS = test system: SF-268 CNS
MCF7 breast = test system: MCF7 breast
NCI-H460 lung = test system: NCI-H460 lung
HCC-2998 colon = test system: HCC-2998 colon
NCI-H226 lung = test system: NCI-H226 lung
A549 NSCLC = test system: A549 NSCLC
MOLT-4 leukemia = test system: MOLT-4 leukemia
786-0 renal = test system: 786-0 renal
K-562 leukemia = test system: K-562 leukemia
OVCAR-5 ovarian = test system: OVCAR-5 ovarian
SW-620 colon = test system: SW-620 colon
HCT-116 colon = test system: HCT-116 colon
IGROV1 ovarian = test system: IGROV1 ovarian
MDA-MB-435 = test system: MDA-MB-435
PC-3 prostate = test system: PC-3 prostate
SK-OV-3 ovarian = test system: SK-OV-3 ovarian
ACHN renal = test system: ACHN renal
HS 578T breast = test system: HS 578T breast
UACC-257 melanoma = test system: UACC-257 melanoma
NCI-H23 lung = test system: NCI-H23 lung
CAKI-1 renal = test system: CAKI-1 renal
MDA-N = test system: MDA-N
NCI-H522 lung = test system: NCI-H522 lung
NCI/ADR-RES ovarian = test system: NCI/ADR-RES ovarian
COLO 205 colon = test system: COLO 205 colon
U251 CNS = test system: U251 CNS
OVCAR-8 ovarian = test system: OVCAR-8 ovarian
HOP-92 NSCLC = test system: HOP-92 NSCLC
A498 renal = test system: A498 renal
RPMI-8226 leukemia = test system: RPMI-8226 leukemia

Question: What does the source list for `O=P1(Cc2ccccc2)N(Cc2ccccc2)[C@@H]2CCCC[C@H]2N1Cc1ccccc1`?
Answer: TGI (SK-MEL-28 melanoma): 33.2 µM; TGI (HOP-62 NSCLC): 32.2 µM; TGI (KM12 colon): 22.4 µM; TGI (BT-549 breast): 33.8 µM; TGI (LOX IMVI melanoma): 26.1 µM; TGI (CCRF-CEM leukemia): 32.3 µM; TGI (SN12C renal): 23.2 µM; TGI (M14 melanoma): 16.6 µM; TGI (DU-145 prostate): 27.1 µM; TGI (T-47D breast): 24.3 µM; TGI (HT29 colon): 18.6 µM; TGI (SNB-19 CNS): 24.2 µM; TGI (MALME-3M melanoma): 32.4 µM; TGI (UACC-62 melanoma): 20.6 µM; TGI (HCT-15 colon): 23.8 µM; TGI (SF-295 CNS): 21.1 µM; TGI (OVCAR-3 ovarian): 20.9 µM; TGI (MDA-MB-231 breast): 24.9 µM; TGI (SK-MEL-5 melanoma): 3.57 µM; TGI (SNB-75 CNS): 21.1 µM; TGI (HL-60(TB) leukemia): 19.8 µM; TGI (UO-31 renal): 19.7 µM; TGI (SF-539 CNS): 33.8 µM; TGI (SK-MEL-2 melanoma): 25.4 µM; TGI (TK-10 renal): 26.7 µM; TGI (SR leukemia): 8.06 µM; TGI (OVCAR-4 ovarian): 15.2 µM; TGI (RXF 393 renal): 26.9 µM; TGI (EKVX NSCLC): 22.4 µM; TGI (SF-268 CNS): 24.3 µM; TGI (MCF7 breast): 23.3 µM; TGI (NCI-H460 lung): 25.8 µM; TGI (HCC-2998 colon): 22 µM; TGI (NCI-H226 lung): 4.63 µM; TGI (A549 NSCLC): 19.7 µM; TGI (MOLT-4 leukemia): 8.44 µM; TGI (786-0 renal): 27.2 µM; TGI (K-562 leukemia): 19.2 µM; TGI (OVCAR-5 ovarian): 24.7 µM; TGI (SW-620 colon): 30.1 µM; TGI (HCT-116 colon): 20 µM; TGI (IGROV1 ovarian): 19.4 µM; TGI (MDA-MB-435): 19.8 µM; TGI (PC-3 prostate): 15.3 µM; TGI (SK-OV-3 ovarian): 28 µM; TGI (ACHN renal): 25.5 µM; TGI (HS 578T breast): 26.5 µM; TGI (UACC-257 melanoma): 20.1 µM; TGI (NCI-H23 lung): 23.2 µM; TGI (CAKI-1 renal): 23.7 µM; TGI (MDA-N): 19.8 µM; TGI (NCI-H522 lung): 14.4 µM; TGI (NCI/ADR-RES ovarian): 23 µM; TGI (COLO 205 colon): 18.7 µM; TGI (U251 CNS): 25.5 µM; TGI (OVCAR-8 ovarian): 23.8 µM

Question: For `C/C(=N\NC(=S)N1CCCC1)c1nc2ncccc2[nH]1`, which TGI (SK-MEL-28 melanoma) is on record?
Answer: Its TGI is 28.2 µM.

Question: What about the TGI (HOP-92 NSCLC) of the same compound?
Answer: Its TGI is 8.5 µM.

Question: What about the TGI (HOP-62 NSCLC) of the same compound?
Answer: Its TGI is 24.6 µM.

Question: And the TGI (KM12 colon)?
Answer: Its TGI is 23.8 µM.

Question: What about the TGI (BT-549 breast) of the same compound?
Answer: Its TGI is 13 µM.

Question: What about the TGI (LOX IMVI melanoma) of the same compound?
Answer: Its TGI is 13.1 µM.

Question: What about the TGI (CCRF-CEM leukemia) of the same compound?
Answer: The TGI was 1.1 µM.

Question: And the TGI (SN12C renal)?
Answer: Its TGI is over 100 µM.

Question: And the TGI (M14 melanoma)?
Answer: Its TGI is 31.3 µM.

Question: And the TGI (DU-145 prostate)?
Answer: Its TGI is 13.1 µM.

Question: And the TGI (T-47D breast)?
Answer: Its TGI is over 100 µM.

Question: And the TGI (HT29 colon)?
Answer: The TGI was 20.2 µM.

Question: What about the TGI (A498 renal) of the same compound?
Answer: The TGI was 27.1 µM.

Question: What about the TGI (SNB-19 CNS) of the same compound?
Answer: Its TGI is 17.1 µM.

Question: And the TGI (MALME-3M melanoma)?
Answer: The TGI was 63.9 µM.

Question: What about the TGI (UACC-62 melanoma) of the same compound?
Answer: The TGI was 11.2 µM.

Question: What about the TGI (HCT-15 colon) of the same compound?
Answer: The TGI was over 100 µM.

Question: And the TGI (SF-295 CNS)?
Answer: Its TGI is 22.6 µM.

Question: And the TGI (OVCAR-3 ovarian)?
Answer: The TGI was over 100 µM.

Question: What about the TGI (MDA-MB-231 breast) of the same compound?
Answer: Its TGI is over 100 µM.

Question: And the TGI (SK-MEL-5 melanoma)?
Answer: Its TGI is 2.93 µM.

Question: What about the TGI (SNB-75 CNS) of the same compound?
Answer: Its TGI is over 100 µM.

Question: What about the TGI (HL-60(TB) leukemia) of the same compound?
Answer: The TGI was over 100 µM.

Question: And the TGI (UO-31 renal)?
Answer: Its TGI is 0.492 µM.

Question: And the TGI (SF-539 CNS)?
Answer: Its TGI is 0.523 µM.

Question: And the TGI (SK-MEL-2 melanoma)?
Answer: Its TGI is 46.8 µM.

Question: And the TGI (TK-10 renal)?
Answer: Its TGI is 45 µM.

Question: And the TGI (SR leukemia)?
Answer: The TGI was over 100 µM.

Question: And the TGI (OVCAR-4 ovarian)?
Answer: The TGI was 18.6 µM.

Question: What about the TGI (SF-268 CNS) of the same compound?
Answer: Its TGI is over 100 µM.

Question: And the TGI (MCF7 breast)?
Answer: The TGI was 13.4 µM.

Question: And the TGI (NCI-H460 lung)?
Answer: The TGI was 1.68 µM.

Question: What about the TGI (HCC-2998 colon) of the same compound?
Answer: Its TGI is over 100 µM.

Question: And the TGI (NCI-H226 lung)?
Answer: The TGI was 4.31 µM.

Question: And the TGI (A549 NSCLC)?
Answer: The TGI was over 100 µM.

Question: What about the TGI (MOLT-4 leukemia) of the same compound?
Answer: The TGI was 3.7 µM.

Question: What about the TGI (786-0 renal) of the same compound?
Answer: Its TGI is 21.7 µM.

Question: What about the TGI (K-562 leukemia) of the same compound?
Answer: The TGI was 37 µM.

Question: And the TGI (OVCAR-5 ovarian)?
Answer: Its TGI is 20.7 µM.

Question: What about the TGI (SW-620 colon) of the same compound?
Answer: The TGI was 64.4 µM.

Question: And the TGI (HCT-116 colon)?
Answer: The TGI was 18.1 µM.

Question: What about the TGI (MDA-MB-435) of the same compound?
Answer: The TGI was over 100 µM.

Question: What about the TGI (PC-3 prostate) of the same compound?
Answer: Its TGI is over 100 µM.

Question: What about the TGI (RPMI-8226 leukemia) of the same compound?
Answer: Its TGI is 39.4 µM.

Question: What about the TGI (SK-OV-3 ovarian) of the same compound?
Answer: Its TGI is 54.2 µM.

Question: And the TGI (ACHN renal)?
Answer: Its TGI is 11.4 µM.

Question: And the TGI (HS 578T breast)?
Answer: The TGI was over 100 µM.

Question: And the TGI (UACC-257 melanoma)?
Answer: The TGI was 10.7 µM.

Question: What about the TGI (NCI-H23 lung) of the same compound?
Answer: The TGI was 22.1 µM.

Question: What about the TGI (CAKI-1 renal) of the same compound?
Answer: Its TGI is 37.1 µM.

Question: What about the TGI (MDA-N) of the same compound?
Answer: Its TGI is over 100 µM.

Question: What about the TGI (NCI-H522 lung) of the same compound?
Answer: Its TGI is 30.2 µM.

Question: And the TGI (NCI/ADR-RES ovarian)?
Answer: The TGI was over 100 µM.

Question: And the TGI (COLO 205 colon)?
Answer: Its TGI is 28.5 µM.

Question: And the TGI (U251 CNS)?
Answer: Its TGI is 13.5 µM.

Question: And the TGI (OVCAR-8 ovarian)?
Answer: Its TGI is 39.9 µM.

Reference: PubChem BioAssay (NCI)
